Results: patent publication US5919668A, “Non-reducing saccharide and its production and use” (Kabushiki Kaisha Hayashibara Seibutsu Kagaku Kenkyujo, priority 1994, dated 1999)
Entries after “also recorded” stand apart in the source; their conditions may differ.

Columns and labels:
[1] = Maillard reaction (coloration with glycine, absorbance at 480 nm); type: physicochemical; settings: for Coloration degree at 480 nm: 10% saccharide, 1% glycine, 50 mM phosphate buffer pH7.0, 100° C., 90 minutes, 1 cm cuvette
Method: Solutions of 10% saccharide preparation PI, PII, PIII, PIV or PV prepared in Experiment 4 and 1% glycine in 50 mM phosphate buffer (pH7.0) were incubated at 100° C. for 90 minuets, cooled and determined in 1 cm cuvette for absorbance at 480 nm. As control, maltotriose, maltotetraose, maltopentaose, maltohexaose and maltoheptaose which were used as the starting materials were treated similarly as above and determined for absorbance at 480 nm.
10% High-purity trehalose preparation, purity of 99.5%, obtained by the method in Experiment 17 and 1% glycine in 50 mM phosphate buffer (pH7.0) was incubated at 100° C. for 90 minutes, cooled and measured in lcm cuvette for absorbance at 480 nm. As control, glucose and maltose were treated similarly as above and then measured for absorbance at 480 nm.

[2] = test system: non-reducing saccharide-forming enzyme; type: biochemical, Rhizobium species M-11; settings: for Composition: residual substrate: non-reducing saccharide-forming enzyme, 48 h, pH 7; for Composition: newly formed saccharide: 20% substrate, 2 units/g, 40° C., pH7.0, 48 hours
Method: 20% Aqueous solutions of glucose, maltose, maltotriose, maltotetraose, maltopentaose, maltohexaose or maltoheptaose as substrate were prepared, added with 2 units/g substrate solid of the purified enzyme obtained in Experiment 2, allowed to react at 40° C. and pH7.0 for 48 hours, deionized and analyzed for reaction products on high-performance liquid chromatography using "WAKO BEADS WB-T-330", a product of Wako Pure Chemical Industries, Ltd., Osaka, Japan. The high-performance liquid chromatography was conducted at ambient temperature, where water as eluent was flowed at a rate of 0.5 ml/min and "Model RI-8012", a differential reflactometer commercialized by Tosoh Corp., Tokyo, Japan, was used for analysis.

[3] = Properties of products (hygroscopicity, viscosity, stability, tonicity); type: physicochemical
[4] = target: T1, trehalose-releasing enzyme (Rhizobium sp. M-11, UniProt Q53238); type: biochemical, Rhizobium species M-11; settings: trehalose-releasing enzyme, 48 h, pH 7
T1 construct: M-11, about 58-68 kDa
T1 sequence (Q53238 1-596): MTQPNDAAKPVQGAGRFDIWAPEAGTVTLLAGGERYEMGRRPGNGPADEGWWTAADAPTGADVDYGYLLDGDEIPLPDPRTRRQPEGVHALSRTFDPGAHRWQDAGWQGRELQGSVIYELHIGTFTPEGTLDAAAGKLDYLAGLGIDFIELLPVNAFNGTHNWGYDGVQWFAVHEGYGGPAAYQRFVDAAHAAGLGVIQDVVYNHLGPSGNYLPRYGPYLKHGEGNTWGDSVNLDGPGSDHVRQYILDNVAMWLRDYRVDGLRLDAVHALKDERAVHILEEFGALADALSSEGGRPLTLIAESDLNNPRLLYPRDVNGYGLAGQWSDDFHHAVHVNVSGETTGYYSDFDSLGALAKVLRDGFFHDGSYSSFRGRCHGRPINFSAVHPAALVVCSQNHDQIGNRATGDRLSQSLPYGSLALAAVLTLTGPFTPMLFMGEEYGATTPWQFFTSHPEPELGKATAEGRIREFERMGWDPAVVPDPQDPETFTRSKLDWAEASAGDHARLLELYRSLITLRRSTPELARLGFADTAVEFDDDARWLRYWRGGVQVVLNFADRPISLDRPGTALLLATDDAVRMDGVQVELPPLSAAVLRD
Method: Alpha-glycosyl trehaloses as substrates were prepared in accordance with the method described in Japanese Patent Application No. 349,216/93. More particularly, 20% aqueous solutions of maltotriose, maltotetraose, maltopentaose, maltohexaose or maltoheptaose as reducing partial starch hydrolysate were added with 2 units/g substrate solid of a purified non-reducing saccharide-forming enzyme obtained by the method in […], reacted at 40° C. and pH7.0 for 48 hours, heated for inactivation, filtered, deionized, concentrated in conventional manner and applied to ion exchange column chromatography on a strongly-acidic cation exchange "XT-1016" in sodium form. The ion exchange resin was packed in 3 jacketed-stainless steel columns, inner diameter of 2.0 cm, length of 1 m, and the columns were cascaded, loaded with 5 v/v % reaction saccharide liquid against the resin and injected with 55° C. water at SV0.13 for fractionation while keeping the temperature inside the columns at 55° C., thus obtaining high-purity preparations of non-reducing saccharides with glucose polymerization degrees of 3 or higher.
20% Aqueous solutions of these five types of non-reducing saccharides or alpha-glycosyl trehaloses were prepared, added with 2 units/g substrate solid of the purified trehalose-releasing enzyme obtained in Experiment 15, reacted at 40° C. and pH7.0 for 48 hours, deionized and subjected to high-performance liquid chromatography on "WAKO BEADS WB-T-330" for analysis of reaction products. As control, maltotriose, maltotetraose, maltopentaose, maltohexaose and maltoheptaose were subjected to the purified trehalose-releasing enzyme similarly as above and then analyzed on high-performance liquid chromatography.

pig kidney trehalase = assay: Degradation by pig kidney trehalase; type: biochemical; settings: trehalose, or trehalose formed from PI-PV; pH5.7, 37° C., 18 hours for the latter
Method: In order to purify trehalose from respective reaction products, they were decolored, deionized, concentrated and subjected to column fractionation on a strongly-acidic cation exchange of sodium form "XT-1016", followed by recovering high-purity fractions with trehalose contents of 97% or higher. The fractions were then concentrated to about 65% and allowed to standing at 25° C. for 2 days to crystallize out crystalline trehalose hydrate which was then separated and dried in vacuo to obtain a high-purity preparation with a trehalose content of 99% or higher. The yields against respective starting substrates on dry solid basis were as follows: from glycosyl trehalose, 9.5%; from maltosyl trehalose, 14.9%; from maltotriosyl trehalose, 16.0%; from maltotetraosyl trehalose, 18.5%; and from maltopentaosyl trehalose, 17.7%. […] As evident from the above results, the saccharides formed by subjecting alpha-glycosyl trehaloses to the trehalose-releasing enzyme were identified to be trehalose.

[5] = Acute toxicity test, oral administration in mice; type: in vivo; settings: mouse, in vivo; oral, mice
Method: (§1) Acute toxicity tests were conducted on the non-reducing saccharide preparations PI, PII, PIII, PIV and PV prepared in Experiment 4, where they were orally administered to 7 week-old dd mice. […] Thus the LD50 of these saccharides was at least 50 g/kg or higher.
(§2) An acute toxicity test was conducted on a high-purity trehalose preparation obtained by the method in Experiment 17, purity of 99.5%, where it was orally administered in mice. […] Thus its LD50 would be briefly 50 g/kg or higher.

mice = assay: Acute toxicity test, oral administration in mice; type: in vivo; settings: oral, mice
Method: as §1, §2

[6] = Test for assimilation in vivo (blood sugar and insulin levels); settings: 30 g oral, healthy men
Method: In accordance with the method reported by Atsuji et al., Rinsho Eiyo (Clinical Nutrition), Vol.41, No. 2, pp.200-208 (1972), 30 g of a high-purity trehalose preparation, purity of 99.5%, obtained by the method in Experiment 17 was prepared into 20 w/v % aqueous solution and orally administered to healthy men, age of 26, 27, 28, 29, 30 or 31 years, after which their bloods were periodically sampled and measured for blood sugar and insulin levels. Glucose was used as control.

[7] = Reducing power by the Somogyi-Nelson method, represented in terms of DE; type: physicochemical
Method: The high-purity preparations of the newly formed saccharides were determined for reducing power by the Somogyi-Nelson method and represented in terms of DE.

Row | Structure (SMILES) | Coloration degree at 480 nm [1] | Composition: residual substrate [2] [%] | Composition: newly formed saccharide [2] [%] | Composition: residual substrate [4] [%] | other results
1 | OC[C@H]1O[C@H](O[C@H]2[C@H](O)[C@@H](O)C(O)O[C@@H]2CO)[C@H](O)[C@@H](O)[C@@H]1O (mixture of isomers) [Maltose, maltose] | 0.926 | 100.0 |  |  | Formation of new saccharides from substrate (in words) [2]: No saccharides were newly formed
2 | OC[C@H]1O[C@H](O[C@H]2O[C@H](CO)[C@@H](O)[C@H](O)[C@H]2O)[C@H](O)[C@@H](O)[C@@H]1O [Example A-5] |  |  |  |  | Hygroscopicity (in words) [3]: substantially free of hygroscopicity
3 | OC[C@H]1OC(O)[C@H](O)[C@@H](O)[C@@H]1O (stereo partly drawn) [Glucose, glucose] | 1.671 | 100.0 |  |  | Formation of new saccharides from substrate (in words) [2]: No saccharides were newly formed
4 | OC[C@H]1O[C@H](O[C@H]2[C@H](O)[C@@H](O)[C@@H](O[C@H]3[C@H](O)[C@@H](O)[C@@H](O[C@H]4[C@H](O)[C@@H](O)[C@@H](O[C@H]5[C@H](O)[C@@H](O)[C@@H](O[C@H]6[C@H](O)[C@@H](O)[C@@H](O[C@H]7[C@H](O)[C@@H](O)C(O)O[C@@H]7CO)O[C@@H]6CO)O[C@@H]5CO)O[C@@H]4CO)O[C@@H]3CO)O[C@@H]2CO)[C@H](O)[C@@H](O)[C@@H]1O (stereo partly drawn) [Maltoheptaose, maltoheptaose, reference compound] | 0.271 | 6.6 | 93.4 | 100 | 
5 | OC[C@H]1O[C@H](O[C@H]2[C@H](O)[C@@H](O)[C@@H](O[C@H]3[C@H](O)[C@@H](O)[C@@H](O[C@H]4[C@H](O)[C@@H](O)[C@@H](O[C@H]5[C@H](O)[C@@H](O)[C@@H](O[C@H]6[C@H](O)[C@@H](O)C(O)O[C@@H]6CO)O[C@@H]5CO)O[C@@H]4CO)O[C@@H]3CO)O[C@@H]2CO)[C@H](O)[C@@H](O)[C@@H]1O (stereo partly drawn) [Maltohexaose, maltohexaose, reference compound] | 0.318 | 6.5 | 93.5 | 100 | 
6 | OC[C@H]1O[C@H](O[C@H]2[C@H](O)[C@@H](O)[C@@H](O[C@H]3[C@H](O)[C@@H](O)[C@@H](O[C@H]4[C@H](O)[C@@H](O)[C@@H](O[C@H]5[C@H](O)[C@@H](O)C(O)O[C@@H]5CO)O[C@@H]4CO)O[C@@H]3CO)O[C@@H]2CO)[C@H](O)[C@@H](O)[C@@H]1O (stereo partly drawn) [Maltopentaose, maltopentaose, reference compound] | 0.369 | 7.3 | 92.7 | 100 | 
7 | OC[C@H]1O[C@H](O[C@H]2[C@H](O)[C@@H](O)[C@@H](O[C@H]3[C@H](O)[C@@H](O)[C@@H](O[C@H]4[C@H](O)[C@@H](O)C(O)O[C@@H]4CO)O[C@@H]3CO)O[C@@H]2CO)[C@H](O)[C@@H](O)[C@@H]1O (stereo partly drawn) [Maltotetraose, maltotetraose, reference compound] | 0.475 | 14.4 | 85.6 | 100 | 
8 | OC[C@H]1O[C@H](O[C@H]2[C@H](O)[C@@H](O)[C@@H](O[C@H]3[C@H](O)[C@@H](O)C(O)O[C@@H]3CO)O[C@@H]2CO)[C@H](O)[C@@H](O)[C@@H]1O (stereo partly drawn) [Maltotriose, maltotriose, reference compound] | 0.623 | 65.0 | 35.0 | 100 | 
9 | OC[C@H]1O[C@H](O[C@H]2O[C@H](CO)[C@@H](O)[C@H](O)[C@H]2O)[C@H](O)[C@@H](O)[C@@H]1O [Trehalose, alpha,alpha-trehalose] | 0.006 |  |  |  | Degradation by pig kidney trehalase (in words) (pig kidney trehalase): degraded by the trehalase derived from pig kidney; LD50 [5]: ≥ 50000 mg/kg; Animal death at the possible highest dose (mice): caused no death even in the possible highest dose; Coloration relative to glucose and maltose ([1]; 480 nm, with glycine): 0.4-0.6%; Time of maximum blood sugar level after administration ([6]; 20 w/v % aqueous solution): 0.5 to 1 h; Time of maximum insulin level after administration ([6]; 20 w/v % aqueous solution): 0.5 to 1 h; Assimilation (in words) ([6]; glucose as control): trehalose behaved similarly as glucose did; also recorded: readily digested and absorbed and then metabolized and utilized as energy source; Reducing power (in words) [7]: exhibits no reducing power
